Measured values published in PubChem BioAssay (NCI).
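Following 48 hours of exposure in 96-well plates, responses at five concentrations were used to interpolate endpoints linearly. The concentration for 50% growth inhibition is given as GI50. TGI denotes the concentration required for complete inhibition of growth.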

How the values were obtained:
Assay in all cases: NCI tumour cell line growth inhibition, 48 h
HT29 colon = tested on: HT29 colon
TK-10 renal = tested on: TK-10 renal
UACC-257 melanoma = tested on: UACC-257 melanoma
SK-MEL-2 melanoma = tested on: SK-MEL-2 melanoma
HCT-15 colon = tested on: HCT-15 colon
NCI-H460 lung = tested on: NCI-H460 lung
M14 melanoma = tested on: M14 melanoma
786-0 renal = tested on: 786-0 renal
SNB-75 CNS = tested on: SNB-75 CNS
NCI-H522 lung = tested on: NCI-H522 lung
SF-539 CNS = tested on: SF-539 CNS
OVCAR-8 ovarian = tested on: OVCAR-8 ovarian
OVCAR-4 ovarian = tested on: OVCAR-4 ovarian
SK-MEL-5 melanoma = tested on: SK-MEL-5 melanoma
UO-31 renal = tested on: UO-31 renal
HL-60(TB) leukemia = tested on: HL-60(TB) leukemia
NCI-H23 lung = tested on: NCI-H23 lung
HOP-62 NSCLC = tested on: HOP-62 NSCLC
SR leukemia = tested on: SR leukemia
CAKI-1 renal = tested on: CAKI-1 renal
HS 578T breast = tested on: HS 578T breast
RXF 393 renal = tested on: RXF 393 renal
HOP-92 NSCLC = tested on: HOP-92 NSCLC
CCRF-CEM leukemia = tested on: CCRF-CEM leukemia
IGROV1 ovarian = tested on: IGROV1 ovarian
K-562 leukemia = tested on: K-562 leukemia
PC-3 prostate = tested on: PC-3 prostate
KM12 colon = tested on: KM12 colon
LOX IMVI melanoma = tested on: LOX IMVI melanoma
OVCAR-5 ovarian = tested on: OVCAR-5 ovarian
BT-549 breast = tested on: BT-549 breast
MOLT-4 leukemia = tested on: MOLT-4 leukemia
SK-MEL-28 melanoma = tested on: SK-MEL-28 melanoma
SF-268 CNS = tested on: SF-268 CNS
COLO 205 colon = tested on: COLO 205 colon
SN12C renal = tested on: SN12C renal
UACC-62 melanoma = tested on: UACC-62 melanoma
SNB-19 CNS = tested on: SNB-19 CNS
MCF7 breast = tested on: MCF7 breast
SW-620 colon = tested on: SW-620 colon
NCI-H226 lung = tested on: NCI-H226 lung
MALME-3M melanoma = tested on: MALME-3M melanoma
MDA-MB-231 breast = tested on: MDA-MB-231 breast
SK-OV-3 ovarian = tested on: SK-OV-3 ovarian
U251 CNS = tested on: U251 CNS
HCC-2998 colon = tested on: HCC-2998 colon
SF-295 CNS = tested on: SF-295 CNS
HCT-116 colon = tested on: HCT-116 colon
A498 renal = tested on: A498 renal
RPMI-8226 leukemia = tested on: RPMI-8226 leukemia
EKVX NSCLC = tested on: EKVX NSCLC
ACHN renal = tested on: ACHN renal
A549 NSCLC = tested on: A549 NSCLC
DU-145 prostate = tested on: DU-145 prostate

SMILES: CCOC(=O)c1ccc(NC(=O)Nc2nccs2)cc1
- GI50 (HT29 colon): 33.6 nM
- GI50 (TK-10 renal): 38.1 nM
- TGI (TK-10 renal): 669 nM
- GI50 (UACC-257 melanoma): 11100 nM
- TGI (UACC-257 melanoma): 24100 nM
- GI50 (SK-MEL-2 melanoma): 819 nM
- TGI (SK-MEL-2 melanoma): 46800 nM
- GI50 (HCT-15 colon): 36.4 nM
- TGI (HCT-15 colon): > 45500 nM
- GI50 (NCI-H460 lung): 37.5 nM
- TGI (NCI-H460 lung): 2060 nM
- GI50 (M14 melanoma): 34.6 nM
- TGI (M14 melanoma): > 100000 nM
- GI50 (786-0 renal): 716 nM
- TGI (786-0 renal): > 46400 nM
- GI50 (SNB-75 CNS): 1550 nM
- TGI (SNB-75 CNS): > 48900 nM
- GI50 (NCI-H522 lung): 72.4 nM
- TGI (NCI-H522 lung): 688 nM
- GI50 (SF-539 CNS): 106 nM
- TGI (SF-539 CNS): 385 nM
- GI50 (OVCAR-8 ovarian): 53.2 nM
- TGI (OVCAR-8 ovarian): 3170 nM
- GI50 (OVCAR-4 ovarian): 63.1 nM
- TGI (OVCAR-4 ovarian): > 66300 nM
- GI50 (SK-MEL-5 melanoma): 28.5 nM
- TGI (SK-MEL-5 melanoma): 211 nM
- GI50 (UO-31 renal): 490 nM
- TGI (UO-31 renal): 57800 nM
- GI50 (HL-60(TB) leukemia): 459 nM
- TGI (HL-60(TB) leukemia): 7760 nM
- GI50 (NCI-H23 lung): 66.8 nM
- TGI (NCI-H23 lung): 36600 nM
- GI50 (HOP-62 NSCLC): 2510 nM
- TGI (HOP-62 NSCLC): > 45100 nM
- GI50 (SR leukemia): 30.2 nM
- GI50 (CAKI-1 renal): 398 nM
- TGI (CAKI-1 renal): 44800 nM
- GI50 (HS 578T breast): 33 nM
- TGI (HS 578T breast): 33200 nM
- GI50 (RXF 393 renal): 43.4 nM
- TGI (RXF 393 renal): > 100000 nM
- GI50 (HOP-92 NSCLC): 5250 nM
- TGI (HOP-92 NSCLC): 40400 nM
- GI50 (CCRF-CEM leukemia): 448 nM
- TGI (CCRF-CEM leukemia): > 100000 nM
- GI50 (IGROV1 ovarian): 64 nM
- TGI (IGROV1 ovarian): 24000 nM
- GI50 (K-562 leukemia): 31.4 nM
- TGI (K-562 leukemia): 30100 nM
- GI50 (PC-3 prostate): 443 nM
- TGI (PC-3 prostate): 39800 nM
- GI50 (KM12 colon): 110 nM
- TGI (KM12 colon): 1010 nM
- GI50 (LOX IMVI melanoma): 98.7 nM
- TGI (LOX IMVI melanoma): 50100 nM
- GI50 (OVCAR-5 ovarian): 1100 nM
- TGI (OVCAR-5 ovarian): > 100000 nM
- GI50 (BT-549 breast): 328 nM
- TGI (BT-549 breast): 2540 nM
- GI50 (MOLT-4 leukemia): 379 nM
- TGI (MOLT-4 leukemia): 31300 nM
- GI50 (SK-MEL-28 melanoma): 71.2 nM
- TGI (SK-MEL-28 melanoma): 25800 nM
- GI50 (SF-268 CNS): 201 nM
- TGI (SF-268 CNS): 16900 nM
- GI50 (COLO 205 colon): 33.6 nM
- TGI (COLO 205 colon): 117 nM
- GI50 (SN12C renal): 371 nM
- TGI (SN12C renal): 27100 nM
- GI50 (UACC-62 melanoma): 44 nM
- TGI (UACC-62 melanoma): 20400 nM
- GI50 (SNB-19 CNS): 128 nM
- TGI (SNB-19 CNS): 42800 nM
- GI50 (MCF7 breast): 30.9 nM
- TGI (MCF7 breast): 13900 nM
- GI50 (SW-620 colon): 28.3 nM
- TGI (SW-620 colon): 35600 nM
- GI50 (NCI-H226 lung): 363 nM
- GI50 (MALME-3M melanoma): 1240 nM
- TGI (MALME-3M melanoma): 31500 nM
- GI50 (MDA-MB-231 breast): 275 nM
- TGI (MDA-MB-231 breast): 2980 nM
- GI50 (SK-OV-3 ovarian): 44.5 nM
- TGI (SK-OV-3 ovarian): 9760 nM
- GI50 (U251 CNS): 47.8 nM
- TGI (U251 CNS): 25100 nM
- GI50 (HCC-2998 colon): 204 nM
- TGI (HCC-2998 colon): 4450 nM
- GI50 (SF-295 CNS): 627 nM
- TGI (SF-295 CNS): 15500 nM
- GI50 (HCT-116 colon): 60.5 nM
- GI50 (A498 renal): 79.5 nM
- TGI (A498 renal): 568 nM
- GI50 (RPMI-8226 leukemia): 698 nM
- TGI (RPMI-8226 leukemia): > 39500 nM
- GI50 (EKVX NSCLC): 162 nM
- TGI (EKVX NSCLC): > 96600 nM
- GI50 (ACHN renal): 297 nM
- TGI (ACHN renal): > 100000 nM
- GI50 (A549 NSCLC): 72.5 nM
- GI50 (DU-145 prostate): 107 nM
- TGI (DU-145 prostate): 690 nM
